Measurements taken from ChEMBL document CHEMBL3046575, “Synthesis and studies on antidepressant activity of 2,4,6-trihydroxychalcone derivatives” (2012).
The source made the active and inactive calls. The rule behind the calls is not given here.

These compounds were tested on Mus musculus (assay: Antidepressant activity in Mus musculus (mouse) assessed as reduction in immobility time at 10 to 40 mg/kg, ip administered 30 min before test by tail suspension test). Details: not given.
Format: functional, organism-based

Structure (SMILES) | Activity
O=C(/C=C/c1ccccc1Br)c1c(O)cc(O)cc1O | Active

The compounds below were run on Mus musculus (assay: Antidepressant activity in Mus musculus Kunming (mouse) assessed as reduction in immobility time at 10 mg/kg, ip administered 30 min before test by forced swim test relative to control). Details: route intraperitoneal.
Format: functional
Design: scale not given: the % may be the effect or the level left

Structure (SMILES) | Activity [%]
COc1ccc(/C=C/C(=O)c2c(O)cc(O)cc2O)cc1OC | 17.57
O=C(/C=C/c1ccc(Cl)cc1Cl)c1c(O)cc(O)cc1O | 27.43
COc1ccc(/C=C/C(=O)c2c(O)cc(O)cc2O)cc1 [4-METHOXYL-2',4',6'-TRIHYDROXYCHALCONE] | 11.09
O=C(/C=C/c1ccc(F)cc1)c1c(O)cc(O)cc1O [4-FLUORO-2',4',6'-TRIHYDROXYCHALCONE] | 4.39
O=C(/C=C/c1cccc(F)c1)c1c(O)cc(O)cc1O | 17.21
CNCCC(Oc1ccc(C(F)(F)F)cc1)c1ccccc1 (stereo not given) [FLUOXETINE] | 58.68
O=C(/C=C/c1ccc(Br)cc1)c1c(O)cc(O)cc1O [4-BROMO-2',4',6'-TRIHYDROXYCHALCONE] | 19.29
O=C(/C=C/c1ccccc1Br)c1c(O)cc(O)cc1O | 50.04
COc1cc(/C=C/C(=O)c2c(O)cc(O)cc2O)ccc1O | 22.89
O=C(/C=C/c1cccc(Br)c1)c1c(O)cc(O)cc1O | 26.64
O=C(/C=C/c1ccc(O)c(O)c1)c1c(O)cc(O)cc1O [3,4,2',4',6'-PENTAHYDROXYCHALCONE] | 29.09
O=C(/C=C/c1ccc(Cl)cc1)c1c(O)cc(O)cc1O [4-CHLORO-2',4',6'-TRIHYDROXYCHALCONE] | 27.07
O=C(/C=C/c1ccccc1F)c1c(O)cc(O)cc1O | 33.55
O=C(/C=C/c1ccc(O)cc1)c1c(O)cc(O)cc1O [4,2',4',6'-TETRAHYDROXYCHALCONE] | 28.51
Cc1ccc(/C=C/C(=O)c2c(O)cc(O)cc2O)cc1C | 13.31
O=C(/C=C/c1ccccc1Cl)c1c(O)cc(O)cc1O | 18.72
Cc1ccc(/C=C/C(=O)c2c(O)cc(O)cc2O)cc1 | 17.35
O=C(/C=C/c1cccc(Cl)c1)c1c(O)cc(O)cc1O | 27.57

Each compound was assayed on Mus musculus (assay: Antidepressant activity in Mus musculus Kunming (mouse) assessed as reduction in immobility time at 10 to 40 mg/kg, ip administered 30 min before test by forced swim test). Details: not given.
Format: functional, organism-based

Structure (SMILES) | Activity
O=C(/C=C/c1ccccc1Br)c1c(O)cc(O)cc1O | Active
